# Reference: paper PMC12091851, “Replacing a Cereblon Ligand by a DDB1 and CUL4 Associated Factor 11 (DCAF11) Recruiter Converts a Selective Histone Deacetylase 6 PROTAC into a Pan‐Degrader” (Chemmedchem, 2025)
# Biological target: HDAC1 (Homo sapiens, UniProt Q13547)
# Test: Simple Western immunoassay, HDAC1 levels in U-87MG cell lysates
# Type: cell-based
# Parameters: endogenous in cells; host or cells: MM.1S
# Settings: 10 μM, 24 h
# Description: Figure S5. Analysis of HDAC1 and 6 degradation in U-87MG cells. Simple western immunoassay analysis of U-87MG cell lysates. The cells were treated with the indicated compound (10 µM) or vehicle (DMSO) for 24 h. Top: Quantification of HDAC levels, presented as mean ± standard deviation of n = 2 biological replicates; Significance compared to vehicle: ns = p≥0.05 and *** = p≤0.001. Bottom:
# Representative images of n = 2 biological replicates.
# (1 picture or pasted object on this page, not shown here)
# 2. Biological Experiments
# No unexpected or unusually high safety hazards were encountered.
# The human multiple myeloma cell line MM.1S (CRL-2974) was obtained from American Type Culture Collection (ATCC, Manassas, VA, USA). […]
# Louis, MO, USA) according to manufacturer´s instructions. Protein content was determined by Pierce™ BCA Protein Assay Kit (Catalog# 23225, Thermo Fisher Scientific Inc.) according to manufacturer´s guidelines. […]
# Fluorescence Separation 8x25 Capillary Cartridges (Catalog# SM-FL004-1, Protein Simple, Bio-Techne, Minneapolis, MN, USA) were used for separation and the Anti-Mouse Detection Module (Catalog# DM-002, Protein Simple) was used for detection with addition of 20x Anti-Rabbit HRP […]
# Conjugate (Catalog# 043-426, Protein Simple) according to manufacturer´s instructions. […] Evaluation and quantification was performed with the compass software (6.2.0, Protein Simple). […]
# Sequence of HDAC1 (Q13547 whole entry): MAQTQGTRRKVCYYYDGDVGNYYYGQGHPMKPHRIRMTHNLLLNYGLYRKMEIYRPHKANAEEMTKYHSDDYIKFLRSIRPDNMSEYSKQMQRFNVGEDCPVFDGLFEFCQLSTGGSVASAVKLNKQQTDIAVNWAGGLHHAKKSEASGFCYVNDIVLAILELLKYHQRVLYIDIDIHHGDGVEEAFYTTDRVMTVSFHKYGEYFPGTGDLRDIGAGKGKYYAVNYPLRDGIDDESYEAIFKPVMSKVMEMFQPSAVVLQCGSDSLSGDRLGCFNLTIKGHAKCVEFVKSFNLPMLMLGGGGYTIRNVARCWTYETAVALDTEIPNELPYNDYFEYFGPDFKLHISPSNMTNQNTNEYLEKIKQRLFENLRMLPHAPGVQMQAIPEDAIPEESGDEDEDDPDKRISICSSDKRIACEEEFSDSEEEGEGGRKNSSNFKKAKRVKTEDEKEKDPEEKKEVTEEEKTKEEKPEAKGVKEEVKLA
row,Structure (SMILES),HDAC1 degradation in U-87MG cells
1,O=C(CCCCCCNC(=O)c1ccc(N(C(=O)CCl)C(C(=O)NCc2ccccc2)c2ccc(Cl)c(Cl)c2)cc1)NO (centres unmarked) [Compound 2],significant degradation for HDAC1
2,O=C(CCCCCCNC(=O)c1ccc(NC(=O)CCCCCCCCCCCN(C(=O)CCl)C(C(=O)NCc2ccccc2)c2ccc(Cl)c(Cl)c2)cc1)NO (centres unmarked) [Compound 1j],significant HDAC1 and 6 degradation
